Results published in patent EP0548370A1, “DRUG FOR PREVENTING AND/OR TREATING ALLERGIC DISEASE” (MOCHIDA PHARMACEUTICAL CO., LTD., priority 1991, dated 1993).

Columns and labels:
IgE antibodies = assay: Effect on IgE antibody production in ovalbumin-sensitized mice (ELISA); type: in vivo, BALB/c line male mice; settings: for IgE antibody yield (% control): 7 times, blood 14 days after sensitization
Experimental: That is, 4 mg of aluminum hydroxide to which 10 μg of ovalbumin has been adsorbed was intraperitoneally administered to 5 individuals per group of BALB/c line male mice (body weight, 21 - 25 g) to effect sensitization. Immediately after the sensitization, a 5% acacia aqueous solution containing a varied concentration of tofisopam or a 5% acacia aqueous solution containing no tofisopam (control) was administered orally once a day, 7 times in total. After 14 days of the sensitization, blood samples were collected to measure produced amounts of various types of immunoglobulin by means of enzyme-linked immunosorbent assay (ELISA). Production yield of IgE antibodies was measured in the following manner. That is, a blood plasma sample was added to immobilized anti-mouse IgE antibodies to allow IgE to be linked, followed by the reaction with biotin-labeled anti-mouse IgE antibodies and avidin-labeled horseradish peroxidase, and then the amount of produced IgE antibodies was measured based on the horseradish peroxidase activity as a marker (Men'eki-to-[…], vol.15, pp.211 - 216, 1988).

IgG₁ antibodies = assay: Effect on IgG₁ antibody production in ovalbumin-sensitized mice (ELISA); type: in vivo, BALB/c line male mice; settings: for IgG₁ antibody yield (% control): 7 times, blood 14 days after sensitization
Experimental: (§1) That is, 4 mg of aluminum hydroxide to which 10 µg of ovalbumin has been adsorbed was intraperitoneally administered to 5 individuals per group of BALB/c line male mice (body weight, 21 - 25 g) to effect sensitization. Immediately after the sensitization, a 5% acacia aqueous solution containing a varied concentration of tofisopam or a 5% acacia aqueous solution containing no tofisopam (control) was administered orally once a day, 7 times in total. After 14 days of the sensitization, blood samples were collected to measure produced amounts of various types of immunoglobulin by means of enzyme-linked immunosorbent assay (ELISA). Production yields of IgG₁ and IgM antibodies were measured in the following manner. That is, a blood plasma sample was added to immobilized anti-mouse IgG₁ or IgM antibodies to allow IgG₁ antibodies or IgM antibodies to be linked, followed by the reaction with horseradish peroxidase-labeled anti-mouse IgG₁ antibodies or horseradish peroxidase-labeled anti-mouse IgM antibodies, and then the amount of produced IgG₁ or IgM antibodies was measured based on the horseradish peroxidase activity as a marker.

IgM antibodies = assay: Effect on IgM antibody production in ovalbumin-sensitized mice (ELISA); type: in vivo, BALB/c line male mice; settings: for IgM antibody yield (% control): 7 times, blood 14 days after sensitization
Experimental: as §1

rat experimental asthma = assay: Rat experimental asthma, airway resistance by over flow technique; type: in vivo, Wister line male rats
Experimental: That is, 2 x 10¹⁰ cells of inactivated Bordetella pertussis and 1 mg of ovalbumin were respectively administered intraperitoneally and intramuscularly to 5 individuals per group of Wister line male rats (body weight, 194 - 210 g) to effect sensitization. Immediately after the sensitization, a 5% acacia aqueous solution containing a varied concentration of tofisopam or a 5% acacia aqueous solution containing no tofisopam (control) was administered orally once a day, 14 times in total.
After 14 days of the sensitization, ovalbumin was administered to the sensitized rats intravenously at a dose of 0.5 mg/kg, and the increasing degree of airway resistance was measured by means of the over flow technique (Arch. Exp. Pathol. Pharmak., vol.195, pp.71 - 74, 1974). The thus obtained inhibition rate of airway contraction, when the result of the control test is defined as 100, is shown in Table 4.

[1] = system: psychogenic bronchial asthma; settings: of 26 cases; with simultaneous β₂ stimulant and theophylline preparation; cited from earlier work
bronchial asthma = settings: 16 cases of bronchial asthma patients; cited from earlier work
chronic urticaria [2] = settings: of 14 cases; with antihistaminic drug, Chinese orthodox medicine and the like; cited from earlier work
chronic urticaria [3] = settings: of 2 cases; cited from earlier work
[4] = in vivo; cited from earlier work
[5] = 100 mg/kg/day orally once a day
[6] = 300 mg/kg/day orally once a day
[7] = 100 or 300 mg/kg/day orally for 7 days

With `CCC1C(C)=NN=C(c2ccc(OC)c(OC)c2)c2cc(OC)c(OC)cc21` (stereo not drawn) [Tofisopam, 1-(3,4-dimethoxyphenyl)-5-ethyl-7,8-dimethoxy-4-methyl-5H-2,3-benzodiazepine] the “IgE antibody yield (% control)” value (IgE antibodies; [5]) was 66 % control, the “IgE antibody yield (% control)” value (IgE antibodies; [6]) was 56 % control and the inhibition at 100 mg/kg (IgE antibodies; Mus musculus, po, 168 h, 100 mg/kg/day orally for 7 days) was roughly 34%. For the same compound, the inhibition at 300 mg/kg (IgE antibodies; Mus musculus, po, 168 h, 300 mg/kg/day orally for 7 days) was roughly 44%, the “IgG₁ antibody yield (% control)” value (IgG₁ antibodies; [5]) was 113 % control and the “IgG₁ antibody yield (% control)” value (IgG₁ antibodies; [6]) was 111 % control. The “influence upon the production of IgG₁ antibodies” value (IgG₁ antibodies; [7]) was “hardly exerts influence”, the “IgM antibody yield (% control)” value (IgM antibodies; [5]) was 97 % control and the “IgM antibody yield (% control)” value (IgM antibodies; [6]) was 87 % control. For the same compound, the “influence upon the production of IgM antibodies” value (IgM antibodies; [7]) was “hardly exerts influence”, the airway reaction (rat experimental asthma; 100 mg/kg/day orally for 14 days) was “can inhibit the airway reaction” and the “Inhibition rate (%) of airway contraction” value (rat experimental asthma; 100 mg/kg/day orally once a day, 14 times, ovalbumin 0.5 mg/kg intravenously 14 days after sensitization) was 27%. The cases improved [1] was “one”, the “efficacy in objective findings” value (bronchial asthma) was 25% and the “efficacy in subjective symptoms” value (bronchial asthma) was 50%. For the same compound, the cases improved (chronic urticaria [2]) was 8, the cases improved significantly (chronic urticaria [3]) was 1 and the “acute, subacute and chronic toxicities” value [4] was “confirmed safety of the compound”.
